Measured values as given in publication PMC9917099, “The Mycotoxin Patulin Inhibits the Mitochondrial Carnitine/Acylcarnitine Carrier (SLC25A20) by Interaction with Cys136 Implications for Human Health” (International Journal of Molecular Sciences, 2023).

Molecular target: T1, CAC in intact rat liver mitochondria (Rattus norvegicus, UniProt P97521)
T1 construct: the native protein extracted from rat liver mitochondria; from tissue; host or cells: rat liver mitochondria (Triton X-100 extract)
T1 sequence (P97521 1-301): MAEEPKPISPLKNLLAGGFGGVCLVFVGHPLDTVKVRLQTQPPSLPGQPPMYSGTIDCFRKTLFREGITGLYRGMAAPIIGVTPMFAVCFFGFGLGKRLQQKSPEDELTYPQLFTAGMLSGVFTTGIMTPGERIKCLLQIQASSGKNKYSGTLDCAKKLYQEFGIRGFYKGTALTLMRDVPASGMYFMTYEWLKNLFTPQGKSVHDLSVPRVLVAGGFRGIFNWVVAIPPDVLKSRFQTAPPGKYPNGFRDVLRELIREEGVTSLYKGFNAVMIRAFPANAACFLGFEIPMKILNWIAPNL
Assay: Treatment of intact rat liver mitochondria, then solubilization, reconstitution in proteoliposomes and carnitine antiport assay
Format: biochemical
Conditions: GSH alone, 5 mM, 60 min, intact mitochondria
Procedure: Figure 1 Effect of Patulin on the native carnitine/acylcarnitine carrier (CAC). (A) Dose-response analysis of proteoliposomes reconstituted with the CAC extracted from rat liver mitochondria (0.3 mg of total proteins) and incubated with PAT at the indicated concentrations for 30 min, before measuring the transport activity by adding 0.1 mM [^3H] carnitine for 10 min as described in Materials and Methods. The percentage of residual activity compared to control, without PAT treatment, is reported. The values are the means ± SD from three independent experiments. (B) Rat liver mitochondria (5 mg/100 μL) were incubated or not (control) for 60 min, with Patulin (60 μM) or GSH (5 mM) as indicated. Upon treatment, the unreacted drug was removed by washing the mitochondria in PBS 1X and then 0.3 mg mitochondria were solubilized by 3% TX-100, 10 mM PIPES pH 7.0 and reconstituted in proteoliposomes for transport assay as indicated in (A) and Materials and Methods. Black and white bars indicate without or with the addition of 5 mM dithioerythritol (DTE) 1 min before the transport assay to aliquots of each sample.
The effect of PAT on the CAC at 60 µM concentration was also detected in intact rat liver mitochondria. Upon treatment (60 min), the mitochondria were solubilized in Triton X-100 and 0.3 mg of mitochondrial extract were reconstituted in proteoliposomes for testing the transport activity of CAC (see above). […] Aliquots of intact mitochondria incubated with PAT were treated also with reduced GSH to verify whether this physiological SH-reducing agent was able to reverse the mycotoxin-protein interactions.
The recombinant CAC proteins were reconstituted in proteoliposomes as previously described. Rat liver mitochondria after purification, using the standard procedure of cell disruption and differential centrifugation were solubilized with 3% Triton X-100 in a PIPES buffer (10 mM) at pH 7.0. Herein, the mitochondrial extract (0.3 mg) were reconstituted in the liposomes as above described for the mitochondrial CAC recombinant protein, in the absence of reducing agents. The concentration of intraliposomal carnitine was 15 mM in all samples.
For the transport assay, 550 μL of proteoliposomes were passed through a Sephadex G-75 column in order to remove the external substrate. Six hundred μL of the turbid eluate were collected, divided into samples of 100 μL each, and used for transport measurement by the inhibitor-stop method. Transport was started as homoexchange by adding 0.1 mM [^3H]-carnitine to proteoliposomes containing 15 mM carnitine and, at the indicated time interval, stopped by 1.5 mM NEM (N-ethylmaleimide). The inhibitor was added together with the labelled substrate at time zero in the control samples. After finishing the transport reaction, the external radiolabel substrate was removed by gel filtration chromatography (Sephadex G-75), and the intraliposomal radioactivity was measured by liquid scintillation. Transport was measured at 25 °C. The experimental values were corrected by subtracting the controls. Transport rates were measured in 10 min, i.e., within the initial linear range of the time course.

**Q.** Which “transport activity compared to control” value does the source give for `N[C@@H](CCC(=O)N[C@@H](CS)C(=O)NCC(=O)O)C(=O)O` [GSH, glutathione, reference compound] here?
**A.** moderate increase
